Results: PubChem BioAssay (NCI)
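All cell lines were grown in 96-well plates and treated with compound for 48 hours. TGI marks complete inhibition of growth.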

Assays:
Assay in all cases: NCI anticancer screen, dose series, 48 h
786-0 renal = system: 786-0 renal
A498 renal = system: A498 renal
A549 NSCLC = system: A549 NSCLC
ACHN renal = system: ACHN renal
CAKI-1 renal = system: CAKI-1 renal
CCRF-CEM leukemia = system: CCRF-CEM leukemia
COLO 205 colon = system: COLO 205 colon
DMS 273 small cell lung = system: DMS 273 small cell lung
EKVX NSCLC = system: EKVX NSCLC
HCC-2998 colon = system: HCC-2998 colon
HCT-116 colon = system: HCT-116 colon
HL-60(TB) leukemia = system: HL-60(TB) leukemia
HOP-18 NSCLC = system: HOP-18 NSCLC
HOP-62 NSCLC = system: HOP-62 NSCLC
HOP-92 NSCLC = system: HOP-92 NSCLC
HT29 colon = system: HT29 colon
IGROV1 ovarian = system: IGROV1 ovarian
K-562 leukemia = system: K-562 leukemia
KM12 colon = system: KM12 colon
KM20L2 colon = system: KM20L2 colon
LOX IMVI melanoma = system: LOX IMVI melanoma
LXFL 529 NSCLC = system: LXFL 529 NSCLC
M19-MEL melanoma = system: M19-MEL melanoma
MALME-3M melanoma = system: MALME-3M melanoma
MOLT-4 leukemia = system: MOLT-4 leukemia
NCI-H226 lung = system: NCI-H226 lung
NCI-H23 lung = system: NCI-H23 lung
NCI-H460 lung = system: NCI-H460 lung
NCI-H522 lung = system: NCI-H522 lung
OVCAR-3 ovarian = system: OVCAR-3 ovarian
OVCAR-4 ovarian = system: OVCAR-4 ovarian
OVCAR-5 ovarian = system: OVCAR-5 ovarian
OVCAR-8 ovarian = system: OVCAR-8 ovarian
RXF 393 renal = system: RXF 393 renal
SF-268 CNS = system: SF-268 CNS
SF-295 CNS = system: SF-295 CNS
SF-539 CNS = system: SF-539 CNS
SK-MEL-2 melanoma = system: SK-MEL-2 melanoma
SK-MEL-28 melanoma = system: SK-MEL-28 melanoma
SK-OV-3 ovarian = system: SK-OV-3 ovarian
SN12C renal = system: SN12C renal
SNB-19 CNS = system: SNB-19 CNS
SNB-78 CNS = system: SNB-78 CNS
SR leukemia = system: SR leukemia
SW-620 colon = system: SW-620 colon
TK-10 renal = system: TK-10 renal
U251 CNS = system: U251 CNS
UACC-257 melanoma = system: UACC-257 melanoma
XF 498 CNS = system: XF 498 CNS
BT-549 breast = system: BT-549 breast
DLD-1 colon = system: DLD-1 colon
DMS 114 small cell lung = system: DMS 114 small cell lung
DU-145 prostate = system: DU-145 prostate
HCT-15 colon = system: HCT-15 colon
HS 578T breast = system: HS 578T breast
M14 melanoma = system: M14 melanoma
MCF7 breast = system: MCF7 breast
MDA-MB-231 breast = system: MDA-MB-231 breast
MDA-MB-435 = system: MDA-MB-435
MDA-N = system: MDA-N
NCI/ADR-RES ovarian = system: NCI/ADR-RES ovarian
PC-3 prostate = system: PC-3 prostate
RPMI-8226 leukemia = system: RPMI-8226 leukemia
SK-MEL-5 melanoma = system: SK-MEL-5 melanoma
SNB-75 CNS = system: SNB-75 CNS
T-47D breast = system: T-47D breast
UACC-62 melanoma = system: UACC-62 melanoma
UO-31 renal = system: UO-31 renal

`FC(F)(F)C12C34C=CC5(CCC6(C=CC1(CC3)O6)C52C(F)(F)F)O4` (stereo unspecified) gave a TGI (786-0 renal) of over 100 µM, a TGI (A498 renal) of over 100 µM and a TGI (A549 NSCLC) of over 100 µM. It also gave a TGI (ACHN renal) of over 100 µM, a TGI (CAKI-1 renal) of over 100 µM and a TGI (CCRF-CEM leukemia) of over 100 µM. It also gave a TGI (COLO 205 colon) of over 100 µM, a TGI (DMS 273 small cell lung) of over 100 µM and a TGI (EKVX NSCLC) of over 100 µM. For the same compound, the TGI (HCC-2998 colon) was over 100 µM, the TGI (HCT-116 colon) was over 100 µM and the TGI (HL-60(TB) leukemia) was over 100 µM. It also gave a TGI (HOP-18 NSCLC) of over 100 µM, a TGI (HOP-62 NSCLC) of over 100 µM and a TGI (HOP-92 NSCLC) of over 100 µM. For the same compound, the TGI (HT29 colon) was over 100 µM, the TGI (IGROV1 ovarian) was over 100 µM and the TGI (K-562 leukemia) was over 100 µM. For the same compound, the TGI (KM12 colon) was over 100 µM, the TGI (KM20L2 colon) was over 100 µM and the TGI (LOX IMVI melanoma) was over 100 µM. For the same compound, the TGI (LXFL 529 NSCLC) was over 100 µM, the TGI (M19-MEL melanoma) was over 100 µM and the TGI (MALME-3M melanoma) was over 100 µM. For the same compound, the TGI (MOLT-4 leukemia) was over 100 µM, the TGI (NCI-H226 lung) was over 100 µM and the TGI (NCI-H23 lung) was over 100 µM. The TGI (NCI-H460 lung) was over 100 µM, the TGI (NCI-H522 lung) was over 100 µM and the TGI (OVCAR-3 ovarian) was over 100 µM. It also gave a TGI (OVCAR-4 ovarian) of over 100 µM, a TGI (OVCAR-5 ovarian) of over 100 µM and a TGI (OVCAR-8 ovarian) of over 100 µM. For the same compound, the TGI (RXF 393 renal) was over 100 µM, the TGI (SF-268 CNS) was over 100 µM and the TGI (SF-295 CNS) was over 100 µM. The TGI (SF-539 CNS) was over 100 µM, the TGI (SK-MEL-2 melanoma) was over 100 µM and the TGI (SK-MEL-28 melanoma) was over 100 µM. It also gave a TGI (SK-OV-3 ovarian) of over 100 µM, a TGI (SN12C renal) of over 100 µM and a TGI (SNB-19 CNS) of over 100 µM. The TGI (SNB-78 CNS) was over 100 µM, the TGI (SR leukemia) was over 100 µM and the TGI (SW-620 colon) was over 100 µM. It also gave a TGI (TK-10 renal) of over 100 µM, a TGI (U251 CNS) of over 100 µM and a TGI (UACC-257 melanoma) of over 100 µM. It also gave a TGI (XF 498 CNS) of over 100 µM.

For `O=C(O)c1cc2c(s1)C(=O)c1sccc1C2=O`, the TGI (786-0 renal) was 18.1 µM, the TGI (A498 renal) was 31.2 µM and the TGI (A549 NSCLC) was 8.39 µM. It also gave a TGI (ACHN renal) of 25.1 µM, a TGI (BT-549 breast) of 3.78 µM and a TGI (CAKI-1 renal) of 31.8 µM. It also gave a TGI (CCRF-CEM leukemia) of 33.1 µM, a TGI (COLO 205 colon) of 32.7 µM and a TGI (DLD-1 colon) of 27.7 µM. For the same compound, the TGI (DMS 114 small cell lung) was 11.2 µM, the TGI (DMS 273 small cell lung) was 22.8 µM and the TGI (DU-145 prostate) was 5.85 µM. It also gave a TGI (EKVX NSCLC) of 30.5 µM, a TGI (HCC-2998 colon) of 33.6 µM and a TGI (HCT-116 colon) of 4.81 µM. It also gave a TGI (HCT-15 colon) of 11.9 µM, a TGI (HL-60(TB) leukemia) of 19 µM and a TGI (HOP-18 NSCLC) of 17.7 µM. It also gave a TGI (HOP-62 NSCLC) of 11.6 µM, a TGI (HOP-92 NSCLC) of 30.1 µM and a TGI (HS 578T breast) of 5.91 µM. It also gave a TGI (HT29 colon) of 19 µM, a TGI (IGROV1 ovarian) of 30.9 µM and a TGI (K-562 leukemia) of 15.2 µM. For the same compound, the TGI (KM12 colon) was 21.1 µM, the TGI (KM20L2 colon) was 35.3 µM and the TGI (LOX IMVI melanoma) was 3.04 µM. It also gave a TGI (M14 melanoma) of 2.91 µM, a TGI (M19-MEL melanoma) of 2.49 µM and a TGI (MALME-3M melanoma) of 0.806 µM. For the same compound, the TGI (MCF7 breast) was 7.91 µM, the TGI (MDA-MB-231 breast) was 38.4 µM and the TGI (MDA-MB-435) was 1.68 µM. For the same compound, the TGI (MDA-N) was 1.68 µM, the TGI (MOLT-4 leukemia) was 28.6 µM and the TGI (NCI-H226 lung) was 37.1 µM. For the same compound, the TGI (NCI-H23 lung) was 4.71 µM, the TGI (NCI-H460 lung) was 33 µM and the TGI (NCI-H522 lung) was 8.58 µM. The TGI (NCI/ADR-RES ovarian) was 18.5 µM, the TGI (OVCAR-3 ovarian) was 15.6 µM and the TGI (OVCAR-4 ovarian) was 16.1 µM. The TGI (OVCAR-5 ovarian) was 23.4 µM, the TGI (OVCAR-8 ovarian) was 14.6 µM and the TGI (PC-3 prostate) was 43.5 µM. The TGI (RPMI-8226 leukemia) was 41.7 µM, the TGI (RXF 393 renal) was 16.9 µM and the TGI (SF-268 CNS) was 16.4 µM. It also gave a TGI (SF-295 CNS) of 5.25 µM, a TGI (SF-539 CNS) of 3.85 µM and a TGI (SK-MEL-2 melanoma) of 6.03 µM. It also gave a TGI (SK-MEL-28 melanoma) of 3.45 µM, a TGI (SK-MEL-5 melanoma) of 3.32 µM and a TGI (SK-OV-3 ovarian) of 41.4 µM. The TGI (SN12C renal) was 6.85 µM, the TGI (SNB-19 CNS) was 17.1 µM and the TGI (SNB-75 CNS) was 3.37 µM. The TGI (SNB-78 CNS) was 0.909 µM, the TGI (SR leukemia) was 8.38 µM and the TGI (SW-620 colon) was 5.28 µM. For the same compound, the TGI (T-47D breast) was 17.3 µM, the TGI (TK-10 renal) was 36 µM and the TGI (U251 CNS) was 15.6 µM. It also gave a TGI (UACC-257 melanoma) of 6.27 µM, a TGI (UACC-62 melanoma) of 4.56 µM and a TGI (UO-31 renal) of 16 µM. It also gave a TGI (XF 498 CNS) of 35.4 µM.
